In series [1] the test system is Splenocyte. Nature of the series: Selectivity index, CC50 for splenocytes to IC50 for concanavalin A-induced splenocyte proliferation. It counts as functional.
Series [2] deals with Splenocyte. Description: Selectivity index, CC50 for splenocyte to IC50 for LPS-induced splenocytes proliferation. It counts as functional.
Series [3] can be described thus: Cytotoxicity against splenocytes after 48 hrs by MTT assay. It counts as cell-based, Splenocyte. Background: Tetrazolium assays rely on reduction of a dye to a coloured formazan, in cell work by metabolically active cells.
Series [4] deals with Splenocyte. Description: Immunosuppressive activity in splenocytes assessed as inhibition of concanavalin A-induced proliferation after 48 hrs by [3H]thymidine incorporation assay. It counts as functional, cell-based. The settings on record: Mus musculus. On the technique in general: Incorporation of labelled thymidine or its analogues reports DNA synthesis.
In series [5] the test system is Splenocyte. Nature of the series: Immunosuppressive activity in splenocytes assessed as inhibition of LPS-induced proliferation after 48 hrs by [3H]thymidine incorporation assay. It counts as functional, cell-based. The settings on record: Mus musculus.

As for `C/C=C/C[C@@H](C)[C@@H](O)[C@H]1C(=O)N[C@@H](CC)C(=O)N(C)CC(=O)N(C)[C@@H](CC(C)C)C(=O)N[C@@H](C(C)C)C(=O)N(C)[C@@H](CC(C)C)C(=O)N[C@@H](C)C(=O)N[C@H](C)C(=O)N(C)[C@@H](CC(C)C)C(=O)N(C)[C@@H](CC(C)C)C(=O)N(C)[C@@H](C(C)C)C(=O)N1C` [CYCLOSPORINE], the “Ratio CC50/IC50” value worked out at 88 in series [1] and 12.39 in series [2].
Broadly, the CC50 is the concentration giving 50% cytotoxicity. As a reminder, the IC50 is the concentration at which inhibition is half-maximal. `COc1c2c(cc3oc4oc5cc(O)c(O)cc5c4c(=O)c13)OC(C)(C)C=C2` [HIRTELLANINE A] returned a CC50 at 48 h in series [3] of 3.03 µM. In addition, the IC50 is 0.92 µM in series [4] and 0.06 µM in series [5]. In addition, the figures for the “Ratio CC50/IC50” value in series [1] and in series [2] were 3.29 and 50.5, respectively.
The corresponding values for `COc1c2c(cc3oc(=O)c4c5cc(O)c(O)cc5oc4c13)OC(C)(C)C=C2` [HIRTELLANINE B] are 26.3 µM, 9.55 µM, 3 µM, 2.76 and 8.77.

The values are drawn from ChEMBL document CHEMBL1158449, “Hirtellanines A and B, a pair of isomeric isoflavonoid derivatives from Campylotropis hirtella and their immunosuppressive activities” (Bioorg Med Chem Lett, 2009).
